pKi: −log10 of the molar value.
Biological target: Hrh3 protein (Rattus norvegicus, UniProt Q5PPG3)
Sequence (Q5PPG3 whole entry): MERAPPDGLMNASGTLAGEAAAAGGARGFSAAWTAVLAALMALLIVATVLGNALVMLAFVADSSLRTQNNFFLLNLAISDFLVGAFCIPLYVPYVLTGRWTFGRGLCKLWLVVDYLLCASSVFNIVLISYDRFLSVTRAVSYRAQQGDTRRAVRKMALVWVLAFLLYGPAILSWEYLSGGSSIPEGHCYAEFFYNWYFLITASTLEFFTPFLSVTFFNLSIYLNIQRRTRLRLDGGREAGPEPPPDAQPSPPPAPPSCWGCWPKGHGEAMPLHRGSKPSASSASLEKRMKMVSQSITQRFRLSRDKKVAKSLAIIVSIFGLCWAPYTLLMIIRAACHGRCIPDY

Structure (SMILES): S=C(NC1CCCCC1)N1CCC(c2cnc[nH]2)CC1
- pKi: 8.74

Source: BindingDB's records for PubMed 7473144 (Gliatech, 1995)
